“Also recorded” adds a separate entry of the source. Like-named read-outs stand apart in the source and are kept apart here. Positions of bridges follow the written chain, without caps; N, C: chain ends. Non-standard residues stand in square brackets, D forms with d. No end group written: not given here. R8 = C=CCCCCCC[C@@](C)(N)C(=O)O; S5 = C=CCCC[C@](C)(N)C(=O)O
Experiments:
SJSA-X cells [1] = assay: FITC-peptide detection in SJSA-X cellular lysates (cell penetration); details: 12 hours
Protocol: Cells were then lysed and anti-FITC pull down was performed, followed by HDM2 and HDMX western analyses.

HDMX = target: T1, HDMX (Homo sapiens, UniProt O15151); assay: Anti-FITC pull down in SJSA-X cells, HDMX western; format: cell-based; details: 15 μM, 12 hours
T1 construct: expressed in transfected cells; host or cells: SJSA-X (SJSA-1 engineered to overexpress HDMX)
T1 sequence (O15151 1-490): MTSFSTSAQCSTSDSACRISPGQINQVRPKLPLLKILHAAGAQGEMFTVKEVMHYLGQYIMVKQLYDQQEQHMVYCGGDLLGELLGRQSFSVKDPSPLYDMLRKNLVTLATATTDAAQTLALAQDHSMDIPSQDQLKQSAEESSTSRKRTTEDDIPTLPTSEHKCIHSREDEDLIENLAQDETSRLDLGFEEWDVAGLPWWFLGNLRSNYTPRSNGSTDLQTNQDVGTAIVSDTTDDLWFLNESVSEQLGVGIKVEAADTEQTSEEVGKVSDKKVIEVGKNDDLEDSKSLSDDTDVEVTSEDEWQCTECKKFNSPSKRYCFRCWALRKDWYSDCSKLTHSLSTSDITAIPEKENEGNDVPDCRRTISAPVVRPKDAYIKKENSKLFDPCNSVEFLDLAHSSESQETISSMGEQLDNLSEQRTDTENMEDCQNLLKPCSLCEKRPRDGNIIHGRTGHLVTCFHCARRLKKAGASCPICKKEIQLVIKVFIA

HDM2 = target: T2, HDM2 (Homo sapiens, UniProt Q00987); assay: Anti-FITC pull down in SJSA-X cells, HDM2 western; format: cell-based; details: 15 μM, 12 hours
T2 construct: endogenous in cells; host or cells: SJSA-X (derivative of SJSA-1 osteosarcoma)
T2 sequence (Q00987 whole entry): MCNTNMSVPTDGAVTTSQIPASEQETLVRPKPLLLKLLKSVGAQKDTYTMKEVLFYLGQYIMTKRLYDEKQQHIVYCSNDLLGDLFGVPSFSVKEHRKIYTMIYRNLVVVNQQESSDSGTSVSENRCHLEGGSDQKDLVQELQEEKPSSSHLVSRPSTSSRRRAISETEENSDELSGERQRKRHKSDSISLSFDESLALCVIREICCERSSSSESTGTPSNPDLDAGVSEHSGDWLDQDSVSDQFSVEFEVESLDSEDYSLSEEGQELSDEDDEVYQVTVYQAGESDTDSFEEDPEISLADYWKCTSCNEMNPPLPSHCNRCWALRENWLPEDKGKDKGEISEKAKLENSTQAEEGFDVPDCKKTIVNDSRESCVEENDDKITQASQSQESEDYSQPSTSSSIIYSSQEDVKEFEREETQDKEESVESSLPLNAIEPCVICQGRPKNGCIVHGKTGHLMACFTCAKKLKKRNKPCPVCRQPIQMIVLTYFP

JEG-3 xenografts = assay: JEG-3 murine xenograft tumor growth; details: 10 mg/kg i.v. once daily for 4 days
MCF-7 cells = assay: CellTiter-Glo viability, MCF-7; format: cell-based, human; details: MCF-7 (HDM2+/HDMX+), 24 h
Protocol: (§1) All viability assays were performed in at least triplicate.

p53 [2] = assay: p53 western of JEG-3 cellular extracts (input); format: cell-based, human; details: JEG-3, 20 μM, 6 hours
Protocol: ; Bethyl Laboratories) and western analysis of electrophoresed protein was conducted using p53 (DO-1; EMD Chemicals or FL-393; Santa Cruz Biotechnology), HDMX (MDMX-82; Abcam), and HAUSP (anti-USP7, Bethyl Labs) antibodies, and Western Lightning chemiluminescence reagent (PerkinElmer). […]

p53 [3] = assay: p53 western in MCF-7 cells; format: cell-based, human; details: MCF-7, 20 μM
Protocol: FIG. 8 is an image of an immunoblot showing that pharmacologic induction of p53-HDMX complexes sensitizes Nutlin-3-resistant cancer cells to HDMX inhibition. […]. Cells were exposed to MG-132 at 10 μM for 6 hours to induce HDMX-p53 complex formation. Cellular extracts (input-left side immunoblot) and anti-HDMX immunoprecipitates (IP:HDMX-right side immunoblot) were analyzed by SDS-PAGE and Western blotting. Levels of p53 and HAUSP are shown.

JEG-3 cells [4] = assay: Caspase-3/7 activation in JEG-3 cells; format: cell-based, human; details: JEG-3, 0.3-10 μM, 12 h
Protocol: Apoptosis studies were performed as follows.

[5] = test system: p53 transcriptional targets HDM2, p21, MIC-1; assay: qPCR of p53 transcriptional targets in JEG-3 cells; details: JEG-3, 20 μM, 6 h
Protocol: qPCR studies were performed as follows. […] Total RNA was reverse transcribed to cDNA using Superscript III reverse transcriptase (Invitrogen). The derived cDNA was employed as the substrate to measure relative transcript levels by qRT-PCR on a PRISM 7700 system using SYBR Green PCR Master Mix (Applied Biosystems). Primers specific for HDM2, p21, MIC-1, and the UBB control were employed. Triplicate reactions were prepared in 96-well optical PCR plates.

[6] = test system: WS1 normal human fibroblasts; assay: CellTiter-Glo viability, WS1 fibroblasts
Protocol: (§2) Finally, WS1 normal human fibroblasts were tested to evaluate relative toxicity in tumor versus non-transformed cells.
(§3) Cultured cells were maintained in the appropriate media (SJSA-1, SJSA-X, SJSA-DD, A431 (DMEM); JEG-3, MCF-7, WS1 (EMEM); HCT116 (McCoy's 5A)) supplemented with fetal calf serum and penicillin/streptomycin. […] Viability was assayed by addition of CellTiter-Glo™ chemiluminescence reagent according to the manufacturer's protocol (Promega). Luminescence was measured using a Spectramax M5 microplate reader (Molecular Devices). […] All viability assays were performed in at least triplicate.

SJSA-DD cells = assay: CellTiter-Glo viability, SJSA-DD; format: cell-based, human; details: SJSA-1 overexpressing dominant negative p53 (SJSA-DD), 24 h
Protocol: as §2, §3

JEG-3 cells [7] = assay: CellTiter-Glo viability, JEG-3; format: cell-based, human; details: JEG-3 (HDM2−/HDMX++), 24 h
Protocol: as §1

SJSA-X cells [8] = assay: CellTiter-Glo viability, SJSA-X; format: cell-based, human; details: SJSA-X (HDM2++/HDMX++), 24 h
Protocol: as §1

SJSA-1 cells = assay: CellTiter-Glo viability, SJSA-1; format: cell-based, human; details: SJSA-1 (HDM2++/HDMX−), 24 h
Protocol: as §1

HCT116 cells = assay: CellTiter-Glo viability, HCT116; format: cell-based, human; details: HCT116 (HDM2+/HDMX+), 24 h
Protocol: as §1

Proteolytic stability = format: in vitro ADME
Text: The amide bond of the peptide backbone is susceptible to hydrolysis by proteases, thereby rendering peptidic compounds vulnerable to rapid degradation in vivo. Peptide helix formation, however, typically buries the amide backbone and therefore may shield it from proteolytic cleavage. The peptidomimetic macrocycles of the present invention may be subjected to in vitro trypsin proteolysis to assess for any change in degradation rate compared to a corresponding uncrosslinked polypeptide. For example, the peptidomimetic macrocycle and a corresponding uncrosslinked polypeptide are incubated with trypsin agarose and the reactions quenched at various time points by centrifugation and subsequent HPLC injection to quantitate the residual substrate by ultraviolet absorption at 280 nm. Briefly, the peptidomimetic macrocycle and peptidomimetic precursor (5 mcg) are incubated with trypsin agarose (Pierce) (S/E~125) for 0, 10, 20, 90, and 180 minutes. Reactions are quenched by tabletop centrifugation at high speed; remaining substrate in the isolated supernatant is quantified by HPLC-based peak detection at 280 nm.

[9] = test system: HCT116 cells deficient in p53; assay: CellTiter-Glo viability, HCT116 deficient in p53; format: cell-based, human; details: HCT116 with genetic deletion of p53, 24 h
Protocol: as §2, §3

[10] = test system: RKO or SJSA-1 cancer cells; assay: Cell viability assays, RKO or SJSA-1 cancer cells; format: cell-based
[11] = test system: bearing the R273H p53 mutation; assay: CellTiter-Glo viability, A431; format: cell-based, human; details: A431, inactivating p53 point mutation, 24 h
Protocol: as §2, §3

HDM2, p21, and MIC-1 = assay: qPCR of p53 targets in excised JEG-3 tumors; details: tumors excised day 5
full-length HDMX = target: T3, full-length HDMX (Homo sapiens, UniProt O15151); assay: Fluorescence polarization direct binding to HDMX; details: FITC-labeled peptides, same dose ranges
T3 construct: plasmid encoding full-length HDMX with N-terminal thioredoxin, S, and hexahistidine tags; thioredoxin (N, cleaved yes); S-tag (N, cleaved yes); hexahistidine (N, cleaved yes); made in house; host or cells: Escherichia coli BL21 (DE3) pLysS, pET32-LIC vector
T3 sequence (O15151 1-490): T1 sequence (O15151 1-490)
Protocol: Fluorescence polarization was then measured at equilibrium on a SpectraMax M5 microplate reader (Molecular Devices).

Compound	tumor growth (JEG-3 xenografts)	cell viability (MCF-7 cells)	p53 levels (p53 [2])	caspase-3/7 activation (JEG-3 cells [4])	upregulation of p53 transcriptional targets (mRNA) compared to vehicle [5]	cell viability (SJSA-DD cells)	cell viability (JEG-3 cells [7])	cell viability (SJSA-X cells [8])	cell viability (SJSA-1 cells)	cell viability (HCT116 cells)	cell viability [9]	cell viability [11]	other results
CC(C)C[C@@H]1NC(=O)[C@H](CCCNC(=N)N)NC(=O)[C@H](Cc2c[nH]c3ccccc23)NC(=O)[C@H](CC(C)C)NC(=O)[C@H](CC(N)=O)NC(=O)[C@](C)(NC(=O)[C@H](Cc2ccccc2)NC(=O)[C@@H](NC(=O)[C@H](CCC(N)=O)NC(=O)[C@H](CCC(N)=O)NC(=O)[C@H](CO)NC(=O)[C@H](CCC(N)=O)NC(=O)CCNC(=S)Nc2ccc3c(c2)C(=O)OC32c3ccc(O)cc3Oc3cc(O)ccc32)[C@@H](C)O)CCCCCCC=CCCC[C@@](C)(C(=O)N[C@@H](CCC(N)=O)C(=O)N[C@@H](CC(N)=O)C(N)=O)NC(=O)[C@H](CC(C)C)NC1=O [FITC-SAH-p53-8]													penetration of intact SJSA-X cells (SJSA-X cells [1]): efficiently penetrated intact SJSA-X cells; co-immunoprecipitation of native HDMX (HDMX): specifically co-immunoprecipitated; co-immunoprecipitation of native HDM2 (HDM2): specifically co-immunoprecipitated
COc1ccc(C2=N[C@@H](c3ccc(Cl)cc3)[C@@H](c3ccc(Cl)cc3)N2C(=O)N2CCNC(=O)C2)c(OC(C)C)c1 [Nutlin-3, reference compound]	not affected	modestly sensitive	increase in p53 levels	little effect	1.5-4 fold	completely insensitive	little to no response; also recorded: most resistant	little to no response; also recorded: ineffective as a single agent	very sensitive	modestly sensitive			p53 levels (p53 [3]): elevate p53 levels; viability of normal human fibroblasts ([6]; WS1, 24 h): no impact
CC(=O)N[C@@H](CC(C)C)C(=O)N[C@@H](CO)C(=O)N[C@@H](CCC(N)=O)C(=O)N[C@@H](CCC(=O)O)C(=O)N[C@H](C(=O)N[C@@H](Cc1ccccc1)C(=O)N[C@]1(C)CCCCCCC=CCCC[C@@](C)(C(=O)N[C@@H](CCC(=O)O)C(=O)N[C@@H](CC(N)=O)C(N)=O)NC(=O)[C@H](CC(C)C)NC(=O)[C@H](CC(C)C)NC(=O)[C@H](CCCCN)NC(=O)[C@H](Cc2c[nH]c3ccccc23)NC(=O)[C@H](CC(C)C)NC(=O)[C@H](CC(=O)O)NC1=O)[C@@H](C)O [SAH-p53-4]													proteolytic stability (Proteolytic stability): improved proteolytic stability
SAH-p53-8: i, i+7 hydrocarbon-stapled p53 transactivation domain peptide (SEQ ID NO: 10), S20 and P27 replaced with olefinic residues	significantly suppressed tumor growth	dose-dependent inhibition of cell viability	increase in p53 levels	dose-responsive activation of caspase-3/7	5-14 fold	completely insensitive	dose-dependent inhibition of cell viability; also recorded: most sensitive	dose-dependent inhibition of cell viability; also recorded: restoring susceptibility	dose-dependent inhibition of cell viability	dose-dependent inhibition of cell viability	completely insensitive	similarly unaffected	reduction in tumor burden compared to vehicle and Nutlin-3 (JEG-3 xenografts; 5-day evaluation): 37-46%; cell viability [10]: promoted cell death; transcriptional activation of HDM2, p21, and MIC-1 in tumors (HDM2, p21, and MIC-1): statistically significant transcriptional activation
SAH-p53-8F19A: negative control peptide: SAH-p53-8 with F19 substituted by alanine (SEQ ID NO: 13) (QSQQTA[R8]NLWRLL[S5]QN; staple 7-14)		inactive				inactive	inactive	inactive	inactive	inactive	inactive	inactive	interaction with HDMX (full-length HDMX): no interaction; viability of normal human fibroblasts [6]: inactive
